This is an account of results in patent US8044069B2, “Compounds as calcium channel blockers” (Abbott Laboratories, priority 2008, dated 2011).

This test addresses human Cav2.2 (Homo sapiens, UniProt Q00975). The experiment in a line: Assessment of calcium channel activity using FLIPR (Ca2+ influx in IMR32 cells). It is filed as cell-based. The following applies: IMR32 cells endogenously expressing human Cav2.2; 60 minute pre-incubation; 2 μM nifedipine; depolarized with 80 mM KCl, 5 mM CaCl2. As for the experimental part:
(i) In Vitro Methods—Assessment of Calcium Channel Activity Using FLIPR:
The IMR32 cells were maintained in MEM media containing 10% (v/v) FBS, 1% (v/v) antibiotic/antimitotic, 1% (v/v) sodium pyruvate and 1% (v/v) MEM NEAA. Following dissociation in 0.05% (v/v) trypsin/EDTA, cells were seeded into black 1×96-well plates (Corning Cellbind) at a density of 1-1.2×10^5 cells/well and incubated in the maintenance media above for 48 hours at 37° C. […] After dye loading and a subsequent 60 minute pre-incubation with compounds (full log dilutions from 10 μM to 0.1 nM) in the presence of 1.3 mM CaCl2 and 2 μM nifedipine to block endogenous L-type channels, the external Ca^2+ concentration was increased to 5 mM CaCl2 and the cells concomitantly depolarized with 80 mM KCl to assay channel activity. To determine the IC50 values, the percent inhibition of the compound at each concentration was determined relative to the activity in the absence of inhibitor, and data was fitted using non-linear regression sigmoidal dose response curve analysis with GraphPad Prism®.

SMILES strings stand for the structures.

human Cav2.2, sequence (Q00975 whole entry): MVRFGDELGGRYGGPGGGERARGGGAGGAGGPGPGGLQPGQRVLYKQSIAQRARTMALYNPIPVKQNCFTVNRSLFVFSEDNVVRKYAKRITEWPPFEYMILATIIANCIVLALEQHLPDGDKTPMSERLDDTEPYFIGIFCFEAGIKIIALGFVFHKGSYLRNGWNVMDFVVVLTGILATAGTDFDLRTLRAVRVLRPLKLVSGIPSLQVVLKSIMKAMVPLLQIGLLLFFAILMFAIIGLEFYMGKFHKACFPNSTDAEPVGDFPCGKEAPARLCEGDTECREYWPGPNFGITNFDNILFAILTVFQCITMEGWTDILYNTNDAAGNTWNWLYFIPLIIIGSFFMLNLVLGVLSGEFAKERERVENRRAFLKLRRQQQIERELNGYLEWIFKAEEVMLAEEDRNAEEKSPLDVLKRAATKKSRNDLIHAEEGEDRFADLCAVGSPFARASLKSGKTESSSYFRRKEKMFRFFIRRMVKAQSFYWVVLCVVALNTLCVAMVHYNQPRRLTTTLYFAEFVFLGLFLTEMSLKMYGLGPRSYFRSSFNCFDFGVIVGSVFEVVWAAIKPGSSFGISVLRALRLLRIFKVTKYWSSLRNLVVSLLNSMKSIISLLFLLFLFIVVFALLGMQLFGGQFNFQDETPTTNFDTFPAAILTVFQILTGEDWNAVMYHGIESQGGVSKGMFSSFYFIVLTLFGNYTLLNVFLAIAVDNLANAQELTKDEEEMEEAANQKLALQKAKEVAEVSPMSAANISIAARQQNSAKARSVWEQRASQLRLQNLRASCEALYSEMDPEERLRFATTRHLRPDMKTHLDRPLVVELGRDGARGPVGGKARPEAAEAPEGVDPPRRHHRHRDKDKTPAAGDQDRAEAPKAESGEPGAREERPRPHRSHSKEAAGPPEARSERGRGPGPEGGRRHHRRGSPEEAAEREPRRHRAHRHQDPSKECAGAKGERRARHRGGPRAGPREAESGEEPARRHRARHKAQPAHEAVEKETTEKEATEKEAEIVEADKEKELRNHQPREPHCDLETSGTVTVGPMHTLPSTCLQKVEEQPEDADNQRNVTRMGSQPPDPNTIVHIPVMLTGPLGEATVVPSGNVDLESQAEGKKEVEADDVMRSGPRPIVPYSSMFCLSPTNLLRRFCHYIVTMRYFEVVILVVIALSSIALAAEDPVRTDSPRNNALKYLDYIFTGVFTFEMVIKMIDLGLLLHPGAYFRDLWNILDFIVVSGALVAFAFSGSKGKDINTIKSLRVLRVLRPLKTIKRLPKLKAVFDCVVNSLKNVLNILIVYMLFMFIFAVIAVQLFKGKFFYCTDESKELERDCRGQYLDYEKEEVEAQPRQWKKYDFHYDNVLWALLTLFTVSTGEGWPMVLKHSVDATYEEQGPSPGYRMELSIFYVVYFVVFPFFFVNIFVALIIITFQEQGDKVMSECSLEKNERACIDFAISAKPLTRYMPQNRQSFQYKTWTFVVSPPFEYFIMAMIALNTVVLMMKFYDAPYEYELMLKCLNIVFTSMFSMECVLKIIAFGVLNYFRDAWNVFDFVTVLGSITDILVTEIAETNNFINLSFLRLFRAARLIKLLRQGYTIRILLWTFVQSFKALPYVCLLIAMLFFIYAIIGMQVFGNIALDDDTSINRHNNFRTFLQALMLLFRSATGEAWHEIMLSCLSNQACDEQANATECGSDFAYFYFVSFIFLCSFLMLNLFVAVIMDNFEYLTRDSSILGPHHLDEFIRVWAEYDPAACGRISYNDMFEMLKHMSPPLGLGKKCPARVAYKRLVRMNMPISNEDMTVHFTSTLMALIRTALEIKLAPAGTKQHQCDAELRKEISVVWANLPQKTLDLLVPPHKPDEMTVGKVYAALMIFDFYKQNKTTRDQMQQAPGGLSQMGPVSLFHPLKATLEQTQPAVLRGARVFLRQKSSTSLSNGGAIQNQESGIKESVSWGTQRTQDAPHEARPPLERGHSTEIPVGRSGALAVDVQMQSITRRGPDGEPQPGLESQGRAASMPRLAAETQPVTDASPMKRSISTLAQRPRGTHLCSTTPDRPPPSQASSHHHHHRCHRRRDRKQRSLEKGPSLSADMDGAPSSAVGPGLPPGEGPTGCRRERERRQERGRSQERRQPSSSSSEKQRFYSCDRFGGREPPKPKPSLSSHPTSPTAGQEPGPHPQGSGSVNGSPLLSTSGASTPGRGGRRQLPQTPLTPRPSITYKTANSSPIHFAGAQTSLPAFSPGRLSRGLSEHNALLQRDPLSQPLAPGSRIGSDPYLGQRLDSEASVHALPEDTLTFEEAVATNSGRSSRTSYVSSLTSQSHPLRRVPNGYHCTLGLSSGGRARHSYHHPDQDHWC
human Cav2.2, sequence (P54289 25-951 partner limits assumed): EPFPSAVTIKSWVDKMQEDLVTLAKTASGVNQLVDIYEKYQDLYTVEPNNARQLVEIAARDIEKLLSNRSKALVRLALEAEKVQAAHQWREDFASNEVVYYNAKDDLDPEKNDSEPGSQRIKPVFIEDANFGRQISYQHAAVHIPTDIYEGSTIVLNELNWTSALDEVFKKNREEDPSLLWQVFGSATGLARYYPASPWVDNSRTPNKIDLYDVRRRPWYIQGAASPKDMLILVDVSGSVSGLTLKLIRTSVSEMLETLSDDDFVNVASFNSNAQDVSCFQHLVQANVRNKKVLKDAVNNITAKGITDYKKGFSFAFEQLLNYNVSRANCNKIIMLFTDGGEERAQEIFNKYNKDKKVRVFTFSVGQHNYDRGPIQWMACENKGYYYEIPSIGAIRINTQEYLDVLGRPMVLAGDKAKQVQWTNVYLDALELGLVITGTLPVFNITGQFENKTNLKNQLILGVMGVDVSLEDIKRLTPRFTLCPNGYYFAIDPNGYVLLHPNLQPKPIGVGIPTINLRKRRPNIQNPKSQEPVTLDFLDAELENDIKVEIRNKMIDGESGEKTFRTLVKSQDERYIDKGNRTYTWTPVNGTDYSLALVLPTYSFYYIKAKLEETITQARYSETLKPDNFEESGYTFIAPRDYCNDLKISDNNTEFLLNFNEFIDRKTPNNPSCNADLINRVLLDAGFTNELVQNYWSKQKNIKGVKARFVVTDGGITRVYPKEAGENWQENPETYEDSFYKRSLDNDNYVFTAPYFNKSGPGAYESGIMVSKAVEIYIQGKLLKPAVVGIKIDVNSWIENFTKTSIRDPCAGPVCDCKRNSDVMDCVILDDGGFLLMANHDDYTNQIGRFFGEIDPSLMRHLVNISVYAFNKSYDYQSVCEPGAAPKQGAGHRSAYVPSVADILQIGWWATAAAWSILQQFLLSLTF
human Cav2.2, sequence (P54289 952-1103 partner limits assumed): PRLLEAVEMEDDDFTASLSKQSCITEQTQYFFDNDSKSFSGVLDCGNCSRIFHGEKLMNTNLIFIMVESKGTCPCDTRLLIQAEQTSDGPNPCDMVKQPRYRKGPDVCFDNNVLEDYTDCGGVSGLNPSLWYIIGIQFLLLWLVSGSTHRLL
human Cav2.2, sequence (P54284 whole entry partner): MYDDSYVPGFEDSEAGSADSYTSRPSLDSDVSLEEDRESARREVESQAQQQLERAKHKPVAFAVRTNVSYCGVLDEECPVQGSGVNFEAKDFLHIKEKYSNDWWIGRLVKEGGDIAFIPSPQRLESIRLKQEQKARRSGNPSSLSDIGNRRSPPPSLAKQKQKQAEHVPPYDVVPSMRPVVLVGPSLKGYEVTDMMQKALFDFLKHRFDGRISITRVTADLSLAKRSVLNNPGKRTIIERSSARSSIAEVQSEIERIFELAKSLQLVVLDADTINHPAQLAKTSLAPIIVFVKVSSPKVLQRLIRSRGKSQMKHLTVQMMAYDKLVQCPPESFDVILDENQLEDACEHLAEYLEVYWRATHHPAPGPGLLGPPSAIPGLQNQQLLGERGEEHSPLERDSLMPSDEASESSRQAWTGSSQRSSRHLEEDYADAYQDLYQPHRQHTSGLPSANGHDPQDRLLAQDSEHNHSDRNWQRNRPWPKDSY

In general, IC50 refers to the concentration needed to halve the response being measured. Regarding `O=C(CN1CCC(c2ccc(F)cc2)(c2ccc(F)cc2)C1=O)N1CCc2ccc(C(F)(F)F)cc2C1` [Example 259, 3,3-bis(4-fluorophenyl)-1-{2-oxo-2-[7-(trifluoromethyl)-3,4-dihydroisoquinolin-2(1H)-yl]ethyl}pyrrolidin-2-one], the IC50 was determined as 2.55 µM.
For `O=C(CN1CCCC(c2ccccc2)(c2ccccc2)C1=O)NC1CCN(C(c2ccccc2)c2ccccc2)CC1` [Example 85, N-(1-benzhydrylpiperidin-4-yl)-2-(2-oxo-3,3-diphenylpiperidin-1-yl)acetamide] the value was 0.41 µM; for `O=C1N(CCCN2CCN(c3cccc(C(F)(F)F)c3)CC2)CCCC1(c1ccccc1)c1ccccc1` [Example 140, 3,3-diphenyl-1-(3-{4-[3-(trifluoromethyl)phenyl]piperazin-1-yl}propyl)piperidin-2-one], 1.25 µM; for `O=C(CN1CCC(c2ccc(F)cc2)(c2ccc(F)cc2)C1=O)NC1CN(Cc2ccc(C(F)(F)F)c(F)c2)C1` [Example 239, 2-[3,3-bis(4-fluorophenyl)-2-oxopyrrolidin-1-yl]-N-{1-[3-fluoro-4-(trifluoromethyl)benzyl]azetidin-3-yl}acetamide], 1.74 µM.
For `CC(C)COc1ccc(-c2noc(CN3CCCC(c4ccccc4)(c4ccccc4)C3=O)n2)cc1` [Example 209, 1-{[3-(4-isobutoxyphenyl)-1,2,4-oxadiazol-5-yl]methyl}-3,3-diphenylpiperidin-2-one] the value was 10.7 µM.
For `CN(CCCN1CCC(c2ccc(F)cc2)(c2ccc(F)cc2)C1=O)C1Cc2ccccc2C1` [Example 114, 1-{3-[2,3-dihydro-1H-inden-2-yl(methyl)amino]propyl}-3,3-bis(4-fluorophenyl)pyrrolidin-2-one] the value was 1.53 µM; for `O=C1N(Cc2nc(-c3cccnc3)no2)CCC1(c1ccccc1)c1ccccc1` [Example 221, 3,3-diphenyl-1-[(3-pyridin-3-yl-1,2,4-oxadiazol-5-yl)methyl]pyrrolidin-2-one], 5.67 µM.
As for `O=C(CN1CCCC(c2ccccc2)(c2ccccc2)C1=O)N1C[C@@H]2CCCN(C(c3ccccc3)c3ccccc3)[C@@H]2C1` [Example 88, 1-{2-[(4aS,7aS)-1-benzhydryloctahydro-6H-pyrrolo[3,4-b]pyridin-6-yl]-2-oxoethyl}-3,3-diphenylpiperidin-2-one], the IC50 amounted to 1.64 µM.
Consider `O=C(CN1CCC(c2ccc(F)cc2)(c2ccc(F)cc2)C1=O)N1Cc2ccc(C(F)(F)F)cc2C1` [Example 228, 3,3-bis(4-fluorophenyl)-1-{2-oxo-2-[5-(trifluoromethyl)-1,3-dihydro-2H-isoindol-2-yl]ethyl}pyrrolidin-2-one], for which the IC50 was 1.53 µM.
As to `O=C(CN1CCC(c2ccccc2)(c2ccccc2)C1=O)N1CCC(NCc2cccc(C(F)(F)F)c2)CC1` [Example 42, 1-[2-oxo-2-(4-{[3-(trifluoromethyl)benzyl]amino}piperidin-1-yl)ethyl]-3,3-diphenylpyrrolidin-2-one], the IC50 was found to be 1.13 µM.
For `O=C1N(Cc2nc(CCc3ccc(Cl)cc3)no2)CCC1(c1ccc(F)cc1)c1ccc(F)cc1` [Example 165, 1-({3-[2-(4-chlorophenyl)ethyl]-1,2,4-oxadiazol-5-yl}methyl)-3,3-bis(4-fluorophenyl)pyrrolidin-2-one] the value was 3.39 µM; for `O=C(CN1CCC(c2ccc(F)cc2Cl)C1=O)N1Cc2ccc(C(F)(F)F)cc2C1` (stereo not drawn) [Example 269, 3-(2-chloro-4-fluorophenyl)-1-{2-oxo-2-[5-(trifluoromethyl)-1,3-dihydro-2H-isoindol-2-yl]ethyl}pyrrolidin-2-one], 3.21 µM.
Consider `COc1cc(CN2CCN(CCN3CCC(c4ccc(F)cc4)(c4ccc(F)cc4)C3=O)CC2)cc(OC)c1` [Example 63, 1-{2-[4-(3,5-dimethoxybenzyl)piperazin-1-yl]ethyl}-3,3-bis(4-fluorophenyl)pyrrolidin-2-one], for which the IC50 worked out at 1.65 µM.
With `O=C1N(Cc2nc(-c3ccc(C(F)(F)F)cc3)no2)CCC1(c1ccc(F)cc1)c1ccc(F)cc1` [Example 190, 3,3-bis(4-fluorophenyl)-1-({3-[4-(trifluoromethyl)phenyl]-1,2,4-oxadiazol-5-yl}methyl)pyrrolidin-2-one], the IC50 stood at 7.07 µM.
Consider `O=C(CN1CCCC(c2ccccc2)(c2ccccc2)C1=O)N1CCC(Oc2ccc(Cl)cc2)CC1` [Example 158, 1-{2-[4-(4-chlorophenoxy)piperidin-1-yl]-2-oxoethyl}-3,3-diphenylpiperidin-2-one], for which the IC50 is 4.07 µM.
For `O=C(CN1CCC(c2ccccc2)(c2ccccc2)C1=O)N1CCC[C@H]2CN(C(c3ccccc3)c3ccccc3)C[C@H]21` [Example 50, 1-{2-[(4aS,7aS)-6-benzhydryloctahydro-1H-pyrrolo[3,4-b]pyridin-1-yl]-2-oxoethyl}-3,3-diphenylpyrrolidin-2-one] the value was 2.62 µM; for `O=C1N(CCN2CCc3ccc(C(F)(F)F)cc3C2)CCC1(c1ccccc1)c1ccccc1` [Example 67, 3,3-diphenyl-1-{2-[7-(trifluoromethyl)-3,4-dihydroisoquinolin-2(1H)-yl]ethyl}pyrrolidin-2-one], 3.44 µM; for `O=C(CN1CCC(c2ccc(F)cc2)(c2ccc(F)cc2)C1=O)NC1CN(Cc2ccccc2)C1` [Example 242, N-(1-benzylazetidin-3-yl)-2-[3,3-bis(4-fluorophenyl)-2-oxopyrrolidin-1-yl]acetamide], 3.17 µM.
Turning to `N#Cc1ccc(NC(=O)CN2CCC(c3ccccc3)(c3ccccc3)C2=O)nc1` [Example 251, N-(5-cyanopyridin-2-yl)-2-(2-oxo-3,3-diphenylpyrrolidin-1-yl)acetamide], the half-maximal inhibitory concentration (IC50) stood at 8.32 µM.
For `O=C(CN1CCC[C@H](c2ccccc2)C1=O)N1Cc2ccc(F)cc2C1` (single isomer, unassigned) [Example 188] the value was above 30 µM; for `O=C(CN1CCCC(c2ccccc2)(c2ccccc2)C1=O)N1CCN(S(=O)(=O)c2cccc(C(F)(F)F)c2)CC1` [Example 84, 1-[2-oxo-2-(4-{[3-(trifluoromethyl)phenyl]sulfonyl}piperazin-1-yl)ethyl]-3,3-diphenylpiperidin-2-one], 0.41 µM; for `O=C(CN1CCC(c2ccccc2)(c2ccccc2)C1=O)NCc1ccc(C(F)(F)F)nc1` [Example 2, 2-(2-oxo-3,3-diphenylpyrrolidin-1-yl)-N-{[6-(trifluoromethyl)pyridin-3-yl]methyl}acetamide], 5.28 µM.
As for `O=C1N(Cc2nc(-c3cnccn3)no2)CCC1(c1ccccc1)c1ccccc1` [Example 230, 3,3-diphenyl-1-[(3-pyrazin-2-yl-1,2,4-oxadiazol-5-yl)methyl]pyrrolidin-2-one], the IC50 is 8.99 µM.
For `CN(CCc1ccccc1)CCN1CCCC(c2ccc(F)cc2)(c2ccc(F)cc2)C1=O` [Example 122, 3,3-bis(4-fluorophenyl)-1-{2-[methyl(2-phenylethyl)amino]ethyl}piperidin-2-one], the IC50 was 2.35 µM.
For `COc1ccc(C2(c3ccc(OC)cc3)CCCN(CCN(C)CCc3cccc(OC)c3)C2=O)cc1` [Example 124, 3,3-bis(4-methoxyphenyl)-1-{2-[[2-(3-methoxyphenyl)ethyl](methyl)amino]ethyl}piperidin-2-one] the value was 1.9 µM; for `O=C1N(Cc2nc(-c3ccc(C(F)(F)F)nc3)no2)CCC1(c1ccc(F)cc1)c1ccc(F)cc1` [Example 212, 3,3-bis(4-fluorophenyl)-1-({3-[6-(trifluoromethyl)pyridin-3-yl]-1,2,4-oxadiazol-5-yl}methyl)pyrrolidin-2-one], 2.63 µM.
On to `O=C(CN1CCCC(c2ccccc2)(c2ccccc2)C1=O)N1CCN(C(c2ccc(F)cc2)c2ccc(F)cc2)CC1` [Example 82, 1-(2-{4-[bis(4-fluorophenyl)methyl]piperazin-1-yl}-2-oxoethyl)-3,3-diphenylpiperidin-2-one], for which the IC50 worked out at 2.36 µM.
As to `O=C(CN1CCC(c2ccc(F)cc2)C1=O)N1Cc2ccc(F)cc2C1` (stereo not drawn) [Example 227, 1-[2-(5-fluoro-1,3-dihydro-2H-isoindol-2-yl)-2-oxoethyl]-3-(4-fluorophenyl)pyrrolidin-2-one], the IC50 came to 12.1 µM.
Take `O=C1N(CCN2CCN(c3ncccn3)CC2)CCCC1(c1ccc(F)cc1)c1ccc(F)cc1` [Example 136, 3,3-bis(4-fluorophenyl)-1-[2-(4-pyrimidin-2-ylpiperazin-1-yl)ethyl]piperidin-2-one]: the concentration for half-maximal inhibition (IC50) is 3.32 µM.
For `O=C(CN1CCC(c2ccccc2)(c2ccccc2)C1=O)N1CCN(c2ccc(F)cc2)CC1` [Example 54, 1-{2-[4-(4-fluorophenyl)piperazin-1-yl]-2-oxoethyl}-3,3-diphenylpyrrolidin-2-one] the value was 2.55 µM.
As to `O=C(CN1CCCC(c2ccccc2)(c2ccccc2)C1=O)N1CCN(C(=O)OCc2ccccc2)CC1` [Example 182, benzyl 4-[(2-oxo-3,3-diphenylpiperidin-1-yl)acetyl]piperazine-1-carboxylate], the IC50 worked out at 1.37 µM.
For the compound `O=C(CN1CCC(c2ccccc2)(c2ccccc2)C1=O)N1CCNC(Cc2ccccc2)C1` (stereo not drawn) [Example 18, 1-[2-(3-benzylpiperazin-1-yl)-2-oxoethyl]-3,3-diphenylpyrrolidin-2-one], the IC50 came out at 2.65 µM.
On to `O=C(CN1CCC(c2ccccc2)(c2ccccc2)C1=O)N1CCN(C(c2ccccc2)c2ccc(Cl)cc2)CC1` (stereo not drawn) [Example 47, 1-(2-{4-[(4-chlorophenyl)(phenyl)methyl]piperazin-1-yl}-2-oxoethyl)-3,3-diphenylpyrrolidin-2-one], for which the IC50 came out at 1.01 µM.
